In publication PMC11513923, “Discovery of ZLC491 as a Potent, Selective, and Orally Bioavailable CDK12/13 PROTAC Degrader” (Journal of Medicinal Chemistry, 2024):

Key:
CDK12/13 [1] = assay: Immunoblotting of CDK12 and CDK13 in HCC38 cells; type: cell-based, human; conditions: increasing concentrations, 15 h
Method: (§1) To further characterize the compound, we determined the half-degradation concentration (DC50) values of ZLC491 in MDA-MB-231 cells. […] We also treated MDA-MB-231 cells with 1 μM ZLC491 at various time points.
(§2) (A) Immunoblotting of CDK12 and CDK13 in MDA-MB-231 cells treated with increasing concentrations of ZLC491 for 15 h (left). Percent remaining CDK12 and CDK13 proteins were plotted for DC50 determination (right). Protein levels were quantified using ImageJ and normalized to corresponding α-tubulin, then plotted using Graphpad Prism 8.0. The data were representative of three independent experiments; (B) immunoblotting of CDK12 and CDK13 proteins in MDA-MB-231 cells treated with ZLC491 for various time points; immunoblotting of CDK12 and CDK13 in HCC38 (C) and MDA-MB-436 (D) cells treated with increasing concentrations of ZLC491 for 15 h. α-Tubulin was used as a loading control. TEXT PRINTED IN THE PICTURE: (A) ZLC491: MDA-MB-231: CDK12 DC50 = 0.032μM; MDA-MB-231: CDK13 DC50 = 0.028μM DOUBTS OF THE COPYIST ABOUT THIS PICTURE: ZLC491, CDK12 DC50: 0.032 read from small print, the digits 3 and 2 are uncertain / ZLC491, CDK13 DC50: 0.028 read from small print, the last digit may be 8, 6 or 3 […]

[2] = test system: DDR proteins (BRCA1, RAD51, ATM); assay: Immunoblotting of DDR proteins in MDA-MB-231 cells; type: cell-based, human; conditions: MDA-MB-231, different doses, 48 h
Method: (§3) We next evaluated the effect of ZLC491 on the expression of DDR genes regulated by CDK12/13.
(§4) (A) Transcription level of DDR genes in MDA-MB-231 cells determined by RT-qPCR upon the treatment with vehicle or ZLC491 at different doses for 12 h, ROR1 was used as a negative control; (B) immunoblotting of DDR proteins in MDA-MB-231 cells after the treatment of ZLC491 at different doses for 48 h; (C) cell antiproliferative activity of ZLC491 in multiple TNBC cells as well as several noncancerous cells. Cells were treated with the compound for 5 days; (D,E) antiproliferative potency of cisplatin or olaparib alone or combined with ZLC491 at different doses in MDA-MB-231 cells for 5 days. Data are plotted using the percentage of absorbance relative to DMSO controls. (F) IC50 values and combination index (CI) in drug combination assay. In this model, CI scores estimate the interaction between the two drugs. If CI < 1, the drugs have a synergistic effect and if CI > 1, the drugs have an antagonistic effect. CI = 1 means the drugs have an additive effect. ^aThe drug combination in the table refers to the starting concentration of the two combined drugs, that would both go through serial dilution when treating cells. […]

CDK12/13 [3] = assay: Immunoblotting of CDK12 and CDK13 in MDA-MB-436 cells; type: cell-based, human; conditions: increasing concentrations, 15 h
Method: as §1, §2

CDK13 = target: T1, CDK13 (Homo sapiens, UniProt Q14004); assay: CDK13 degradation in MDA-MB-231 cells by immunoblotting; type: cell-based;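 as to Protein Degradation (%DMSO control, 0.3 μM) CDK13: percent of CDK13 protein degraded relative to DMSO control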
T1 construct: Immunoblotting of CDK12 and CDK13 in MDA-MB-231 cells treated with increasing concentrations of ZLC491 for 15 h; endogenous in cells; host or cells: MDA-MB-231
T1 sequence (Q14004 whole entry): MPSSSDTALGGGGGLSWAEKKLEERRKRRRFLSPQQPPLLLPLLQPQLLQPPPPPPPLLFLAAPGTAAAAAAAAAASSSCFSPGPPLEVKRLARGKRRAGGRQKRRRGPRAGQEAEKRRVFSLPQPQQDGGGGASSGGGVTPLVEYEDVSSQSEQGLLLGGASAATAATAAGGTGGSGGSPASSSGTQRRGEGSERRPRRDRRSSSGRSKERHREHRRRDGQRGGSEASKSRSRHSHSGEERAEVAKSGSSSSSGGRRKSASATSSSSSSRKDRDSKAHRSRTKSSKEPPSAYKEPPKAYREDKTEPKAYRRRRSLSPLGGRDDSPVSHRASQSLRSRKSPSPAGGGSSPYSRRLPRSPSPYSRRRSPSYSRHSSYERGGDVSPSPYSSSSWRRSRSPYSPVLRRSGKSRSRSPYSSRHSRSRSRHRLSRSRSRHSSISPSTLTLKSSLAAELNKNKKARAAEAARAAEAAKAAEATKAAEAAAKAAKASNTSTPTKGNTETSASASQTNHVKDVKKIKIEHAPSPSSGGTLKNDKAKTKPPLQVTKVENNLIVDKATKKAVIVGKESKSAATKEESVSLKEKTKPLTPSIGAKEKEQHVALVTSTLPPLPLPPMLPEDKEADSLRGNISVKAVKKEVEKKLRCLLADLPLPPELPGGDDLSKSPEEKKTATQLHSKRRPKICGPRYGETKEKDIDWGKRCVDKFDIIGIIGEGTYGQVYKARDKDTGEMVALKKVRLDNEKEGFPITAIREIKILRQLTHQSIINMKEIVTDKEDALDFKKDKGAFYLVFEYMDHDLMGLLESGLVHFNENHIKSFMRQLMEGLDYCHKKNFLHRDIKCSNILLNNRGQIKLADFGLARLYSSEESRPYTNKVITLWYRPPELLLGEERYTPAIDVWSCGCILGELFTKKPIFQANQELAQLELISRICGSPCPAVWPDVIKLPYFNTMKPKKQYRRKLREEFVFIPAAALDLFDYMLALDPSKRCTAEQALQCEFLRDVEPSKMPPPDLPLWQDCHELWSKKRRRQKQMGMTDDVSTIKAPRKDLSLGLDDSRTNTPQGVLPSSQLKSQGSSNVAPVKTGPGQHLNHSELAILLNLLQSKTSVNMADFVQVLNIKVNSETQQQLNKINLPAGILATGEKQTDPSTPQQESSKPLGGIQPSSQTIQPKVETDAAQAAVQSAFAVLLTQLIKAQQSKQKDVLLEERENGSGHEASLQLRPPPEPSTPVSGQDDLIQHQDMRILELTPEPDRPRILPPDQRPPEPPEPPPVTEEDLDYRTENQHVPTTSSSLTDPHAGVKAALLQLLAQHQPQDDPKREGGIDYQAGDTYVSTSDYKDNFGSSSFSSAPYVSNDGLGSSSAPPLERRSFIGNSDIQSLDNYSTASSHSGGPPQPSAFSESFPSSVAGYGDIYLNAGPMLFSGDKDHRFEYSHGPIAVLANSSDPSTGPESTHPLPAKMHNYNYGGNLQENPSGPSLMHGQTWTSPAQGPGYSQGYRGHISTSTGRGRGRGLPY
T1 sequence (O75909 whole entry partner): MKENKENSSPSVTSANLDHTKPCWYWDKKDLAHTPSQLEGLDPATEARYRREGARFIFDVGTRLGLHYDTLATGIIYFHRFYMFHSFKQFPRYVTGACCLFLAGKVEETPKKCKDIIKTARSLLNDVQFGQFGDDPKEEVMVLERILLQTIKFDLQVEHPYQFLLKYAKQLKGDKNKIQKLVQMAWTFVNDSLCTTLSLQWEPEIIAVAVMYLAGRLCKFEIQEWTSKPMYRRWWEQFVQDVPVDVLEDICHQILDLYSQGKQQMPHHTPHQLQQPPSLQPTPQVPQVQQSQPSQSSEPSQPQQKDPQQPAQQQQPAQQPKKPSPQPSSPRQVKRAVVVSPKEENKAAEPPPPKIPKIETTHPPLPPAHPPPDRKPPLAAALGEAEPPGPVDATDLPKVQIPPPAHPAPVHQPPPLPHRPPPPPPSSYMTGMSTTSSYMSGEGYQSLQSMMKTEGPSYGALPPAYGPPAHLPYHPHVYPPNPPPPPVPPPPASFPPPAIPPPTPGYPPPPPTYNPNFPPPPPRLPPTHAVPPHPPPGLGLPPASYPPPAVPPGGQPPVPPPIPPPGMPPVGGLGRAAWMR
Procedure, shortened: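 MDA-MB-231 cells treated with ZLC491 at increasing concentrations for 15 h (screening at 0.3 μM; time course at 1 μM); SDS lysates immunoblotted, band intensities normalised to α-tubulin. DC50 taken from percent remaining protein versus concentration; representative of three independent experiments.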

DDR genes = assay: RT-qPCR of DDR genes in MDA-MB-231 cells; type: cell-based, human; conditions: MDA-MB-231, different doses, 12 h
Method: as §3
as §4, with “effect.” for “effect. CI = 1 means the drugs have an additive effect. ^aThe drug combination in the table refers to the starting concentration of the two combined drugs, that would both go through serial dilution when treating cells.”
RNA utilized for RT-qPCR was extracted as outlined below. […] Expression was normalized to GAPDH, and fold change in expression was calculated relative to the indicated conditions using ΔΔCt method.

With N#Cc1ccc(N[C@H]2CC[C@H](N(C(=O)NCc3ccccc3)c3ccc(N4CCN(C5CCN(c6cc7c(cc6F)C(=O)N(C6CCC(=O)NC6=O)C7=O)CC5)CC4)cc3)CC2)nc1 (some centres unmarked) [ZLC491, 3-Benzyl-1-((1r,4r)-4-((5-cyanopyridin-2-yl)amino)cyclohexyl)-1-(4-(4-(1-(2-(2,6-dioxopiperidin-3-yl)-6-fluoro-1,3-dioxoisoindolin-5-yl)piperidin-4-yl)piperazin-1-yl)phenyl)urea] the “depletion of CDK12/13” value (CDK12/13 [1]) was “concentration-dependent manner”, the “protein levels of DDR-relative proteins (BRCA1, RAD51, ATM)” value [2] was “reduced” and the “depletion of CDK12/13” value (CDK12/13 [3]) was “concentration-dependent manner”. For the same compound, the “CDK13 degradation, immunoblotting of the proteomic samples” value (CDK13; 2 μM, 8 h, MDA-MB-231) was “significantly degraded”, the “Protein Degradation (%DMSO control, 0.3 μM) CDK13” value (CDK13; MDA-MB-231 cells, 0.3 μM, 15 h, immunoblotting, normalized against α-tubulin) was 90% and the DC50 (CDK13; MDA-MB-231 cells, 15 h) was 28 nM. The Degradation rates of CDK13 at 0.3 μM (CDK13; supplementary CSV, 0.3 μM) was 90% and the “transcription of DDR genes (ATM, ATR, BRCA1, BRCA2, FANCD2, SMARCC)” value (DDR genes) was “concentration-dependently suppressed”.
